Assay [1] can be described thus: DPPH test (Procedure 1), free radical / antioxidant activity. Conditions: positive control at 10^-4M; percentage reduction of absorbance at 524 nm relative to the control after 4 hours. The procedure:
Preferably, the material according to the present invention has a free radical activity, that is to say an antioxidant activity, of at least about 15% in the diphenylpicrylhydrazyl (DPPH) test, measured as percentage reduction in absorbance at 524 nm after 4 hours of a 0.5% w/v dispersion of the polysaccharide in 10^−4M DPPH, as described further hereinbelow in Procedure 1. Preferably the percentage reduction in absorbance in the DPPH test (after correction for any absorbance by the dye) is at least about 25%, more preferably at least about 50%, and most preferably at least about 75%.
The ability of the wound dressing materials to react with and remove oxygen containing free radicals is assessed by the DPPH test described in WO94/13333, the entire content of which is expressly incorporated herein by reference. […]
Briefly, the wound dressing material under test (2.5 mg; 5 mg; & 25 mg sample sizes) was suspended in 2.5 ml of 0.1M pH 7.0 phosphate buffer. […] The samples were assessed by measurement of their light absorbance at 524 nm over 6 hours in comparison with a control, particular attention being paid to the figure after 4 hours. The percentage reduction of absorbance relative to the control after 4 hours gives the DPPH test value, with a reproducibility generally of ±5%. […]

Assay [2] relates to Pseudomonas aeruginosa (ATCC 27853 and various PSI strains). In words: Zone of inhibition test (Procedure 2) on Pseudomonas aeruginosa. It is filed as cell-based. Conditions: DSA plates, 37° C., every 24 hours over the test period (72 hours). The procedure:
(§1) Six 2 cm×2 cm squares of each sample are cut out in sterile conditions. On day one of the experiment, cultures of both Pseudomonas aeruginosa (ATCC 27853 and various PSI strains) and Staphylococcus aureus (provided by the Dept of Clinical Microbiology and Pathology) are incubated aerobically at 37° C. for 24 hours on Diagnostic Sensitivity Agar (DSA). After 24 hours test samples are each placed on a DSA plate and immediately wetted with 0.5 mls of a buffer solution. Three squares of sample are placed on plates inoculated with Pseudomonas aeruginosa and three are placed on plates inoculated with Staphylococcus aureus. The plates are then incubated at 37° C. for 24 hours. The zone of inhibited growth around the sample is then measured using calipers, and the test sample is placed on a new inoculated DSA plate. A swab test is carried out on the area beneath the sample to determine if the sample is bacteriostatic if not bactericidal by smearing the swab on a DSA plate and incubating it for 24 hours and then examining the growth.

The test system of a further assay is Staphylococcus aureus. In words: Zone of inhibition test (Procedure 2) on Staphylococcus aureus. It is filed as cell-based. Conditions: DSA plates, 37° C., every 24 hours over the test period (72 hours). The procedure:
as §1

For `O=C1O[C@H]([C@@H](O)CO)C(O)=C1O` [positive control, Ascorbic acid], in assay [1], the DPPH test value is 80-90%.
Take `O=[N+]([O-])[O-].[Ag+]` [silver nitrate solution (0.5%), silver nitrate]: the zone of inhibition result (in assay [2]; in the assay on Staphylococcus aureus) was “zones of inhibition were observed” in each case.

Source of the values: patent publication US20060159732A1, “Antioxidant wound dressing materials” (priority 2003, published 2006).
